Test results taken from EP4603105A1, “PHARMACEUTICAL COMPOSITION CONTAINING CYCLIC COMPOUND HAVING SELECTIVE KRAS INHIBITORY EFFECT AGAINST HRAS AND NRAS” (CHUGAI SEIYAKU KABUSHIKI KAISHA, priority 2022, dated 2024).
*1 amine or outer side, *2 acyl side, *3 side chain or, on linkers, in order; H or OH if unused. Where a SMILES comes first, the peptide text is derived from it. Bridges are numbered along the chain shown (N, C = ends). [ ]: non-standard residue; d: D form. The star is where a group is joined. hPhe(3-Cl-4-CF3) = N[C@@H](CCc1ccc(C(F)(F)F)c(Cl)c1)C(=O)O; X8 = CCCN([C@@H](COCCC(C)C)C(=O)[*:2])[*:1]; NMeGly(cPent) = CN[C@H](C(=O)O)C1CCCC1; NMeD = CN[C@@H](CC(=O)O)C(=O)O; NMeL = CN[C@@H](CC(C)C)C(=O)O; Morpholide = C1CN(*)CCO1; NMeA = CN[C@@H](C)C(=O)O; Aze = O=C(O)[C@@H]1CCN1; Ac4c = NC1(C(=O)O)CCC1; Sar = CNCC(=O)O

Tests used:
[1] = system: human lung cancer strain NCI-H441; type: cell-based
Summary of the method: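 Signal came from […] measured per well once the reagent was added. Beforehand, cells were cultured at 37°C and 5% carbon dioxide on a compound series serially diluted in dimethyl sulfoxide.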

HRAS wild-type protein = HRAS wild-type protein (Homo sapiens, UniProt P01112); assay: Binding to HRAS by surface plasmon resonance (SPR), KD and KD ratio to KRAS; details: ratio of KD value for HRAS wild-type protein to KD value for KRAS (SPR)
Summary of the method: (§1)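 Measured at 30°C: SPR with GDP-loaded, E. coli-expressed biotin-Avi RAS captured (~100–300 RU), ascending 75 s compound injections, HBS pH 7.4 with GDP, MgCl2, 4% DMSO. KD from 1:1 fit.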

[2] = target: GDP-bound NRAS wild-type protein (Homo sapiens, UniProt P01111); assay: Binding to NRAS by surface plasmon resonance (SPR), KD and KD ratio to KRAS; details: ratio of KD value for GDP-bound NRAS wild-type protein to KD value for KRAS (SPR)
Summary of the method: as §1

[3] = target: GDP-bound KRAS wild-type protein (Homo sapiens, UniProt P01116); assay: Binding to KRAS by surface plasmon resonance (SPR), dissociation constant KD; details: Single Cycle Kinetics, 1:1 binding model
Summary of the method: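 Captured GDP-RAS (~100–300 RU) was exposed to increasing compound concentrations, 75 s per step, in running buffer with 10 µM GDP, 10 mM MgCl2 and 4% DMSO at pH 7.4.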

HRAS wild-type protein, sequence (P01112 whole entry): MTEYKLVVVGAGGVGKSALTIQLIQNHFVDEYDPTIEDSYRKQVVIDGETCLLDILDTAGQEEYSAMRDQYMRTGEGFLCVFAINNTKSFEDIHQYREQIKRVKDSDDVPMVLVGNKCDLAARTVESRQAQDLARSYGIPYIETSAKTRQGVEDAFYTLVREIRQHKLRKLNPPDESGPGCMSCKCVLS
GDP-bound KRAS wild-type protein, sequence (P01116 1-188 isoform P01116-2): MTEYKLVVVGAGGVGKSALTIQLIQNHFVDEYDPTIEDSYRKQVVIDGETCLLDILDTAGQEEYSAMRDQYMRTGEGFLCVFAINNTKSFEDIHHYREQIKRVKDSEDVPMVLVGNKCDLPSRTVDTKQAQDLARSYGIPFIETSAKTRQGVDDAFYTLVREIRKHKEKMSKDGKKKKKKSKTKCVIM
GDP-bound NRAS wild-type protein, sequence (P01111 whole entry): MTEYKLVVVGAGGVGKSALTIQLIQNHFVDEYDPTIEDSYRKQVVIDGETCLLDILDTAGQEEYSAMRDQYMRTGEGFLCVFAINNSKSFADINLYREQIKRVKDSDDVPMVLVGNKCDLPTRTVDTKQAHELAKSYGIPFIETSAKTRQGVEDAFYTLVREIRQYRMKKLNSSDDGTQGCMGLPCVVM

SMILES | IC50 [1] [nM] | HRAS /KRAS (HRAS wild-type protein) | NRAS /KRAS [2] | Kd [3] [nM]
CC[C@H](C)[C@@H]1NC(=O)[C@H](CC2CCC2)N(C)C(=O)C[C@@H](C(=O)N(C)C)N(C)C(=O)[C@H](C2CCCC2)N(C)C(=O)C2(CCC2)N(C)C(=O)[C@@H]2C[C@@H](C)CN2C(=O)[C@H](CCc2cc(F)c(C(F)(F)F)c(F)c2)NC(=O)CN(C)C(=O)[C@H](Cc2ccc(C)cc2)N2CC/C=C\C[C@@H](C2=O)N(C)C(=O)CN(C)C1=O [PP1803] | 7.6 | B (a compound having 3 or more and less than 10 is denoted as B) | A (a compound having 10 or more and less than 20 is denoted as A) | 0.1
CC[C@H](C)[C@@H]1NC(=O)[C@H](CC)N(C)C(=O)C[C@@H](C(=O)N(C)C)N(C)C(=O)[C@H](C2CCCC2)N(C)C(=O)C2(CCCC2)N(C)C(=O)[C@@H]2C[C@@H](C)CN2C(=O)[C@H](CCc2cc(F)c(C(F)(F)F)c(F)c2)NC(=O)CN(C)C(=O)[C@H](Cc2ccc(C)cc2)N2CC/C=C\C[C@@H](C2=O)N(C)C(=O)CN(C)C1=O [PP1812] | 7.8 | A (a compound having 10 or more and less than 20 is denoted as A) | A (a compound having 10 or more and less than 20 is denoted as A) | 0.59
CCCN1C(=O)[C@@H]2CCN2C(=O)[C@H](C)N(C)C(=O)[C@H]([C@@H](C)CC)NC(=O)[C@H](CC(C)C)N(C)C(=O)C[C@@H](C(=O)N2CCOCC2)N(C)C(=O)[C@H](C2CCCC2)N(C)C(=O)C2(CCC2)NC(=O)[C@@H]2CCCN2C(=O)[C@H](CCc2ccc(C(F)(F)F)c(Cl)c2)NC(=O)CN(C)C(=O)[C@@H]1COCCC(C)C [PP1819] ([NMeL]I[NMeA][Aze][X8][Sar][hPhe(3-Cl-4-CF3)]P[Ac4c][NMeGly(cPent)][NMeD]-Morpholide; lactam N-11) | 149 | C (A compound having a KD ratio of 0.1 or more and less than 3 is denoted as C) | C (A compound having a KD ratio of 0.1 or more and less than 3 is denoted as C) | 1
CCCN1C(=O)C[C@@H](C(=O)N(C)C)N(C)C(=O)[C@H](C2CCCC2)N(C)C(=O)C2(CCC2)NC(=O)[C@@H]2C[C@@H](OCC)CN2C(=O)[C@H](CCc2cc(F)c(C(F)(F)F)c(F)c2)NC(=O)CN(C)C(=O)[C@H](Cc2ccc(C(F)(F)F)cc2)N2CC/C=C\C[C@@H](C2=O)N(C)C(=O)CN(C)C(=O)[C@H]([C@@H](C)CC)NC(=O)[C@@H]1CC(C)C [PP1825] | 8 | A (a compound having 10 or more and less than 20 is denoted as A) | A (a compound having 10 or more and less than 20 is denoted as A) | 0.14
CCC[C@H]1C(=O)N[C@@H]([C@@H](C)CC)C(=O)N(C)CC(=O)N(C)[C@H]2C/C=C\CCN(C2=O)[C@@H](Cc2ccc(C)cc2)C(=O)N(C)CC(=O)N[C@@H](CCc2ccc(C(F)(F)F)c(OC)c2)C(=O)N2C[C@@H](C)C[C@H]2C(=O)NC2(CCC2)C(=O)N(C)[C@@H](C2CCCC2)C(=O)N(C)[C@H](C(=O)N(C)CC)CC(=O)N1C [PP1840] | 26.8 | B (a compound having 3 or more and less than 10 is denoted as B) | A (a compound having 10 or more and less than 20 is denoted as A) | 0.12
CC[C@H](C)[C@@H]1NC(=O)[C@H](CC)N(C)C(=O)C[C@@H](C(=O)N(C)C)N(C)C(=O)[C@H](C2CCCC2)N(C)C(=O)C2(CC(C)(C)C2)NC(=O)[C@@H]2C[C@@H](C)CN2C(=O)[C@H](CCc2ccc(C(F)(F)F)c(Cl)c2)NC(=O)CN(C)C(=O)[C@H](Cc2ccc(C)cc2)N2CC/C=C\C[C@@H](C2=O)N(C)C(=O)CN(C)C1=O [PP1846] | 9.8 | B (a compound having 3 or more and less than 10 is denoted as B) | A (a compound having 10 or more and less than 20 is denoted as A) | 0.1
CC[C@H](C)[C@@H]1NC(=O)[C@H](CC(C)C)N(C)C(=O)C[C@@H](C(=O)N(CC)CC)N(C)C(=O)[C@H](C2CCCC2)N(C)C(=O)C2(CCC2)NC(=O)[C@@H]2C[C@@H](C)CN2C(=O)[C@H](CCc2ccc(C(F)(F)F)c(OC)c2)NC(=O)CN(C)C(=O)[C@H](Cc2ccc(C)cc2)N2CC/C=C\C[C@@H](C2=O)N(C)C(=O)CN(C)C1=O [PP1849] | 37.1 | A (a compound having 10 or more and less than 20 is denoted as A) | A (a compound having 10 or more and less than 20 is denoted as A) | 0.38
CCO[C@@H]1C[C@H]2C(=O)NC3(CCC3)C(=O)N(C)[C@@H](C3CCCC3)C(=O)N(C)[C@H](C(=O)N(CC)CC)CC(=O)N(C)[C@@H](CC(C)C)C(=O)N[C@@H]([C@@H](C)CC)C(=O)N(C)CC(=O)N(C)[C@H]3C/C=C\CCN(C3=O)[C@@H](Cc3ccc(C)cc3)C(=O)N(C)CC(=O)N[C@@H](CCc3ccc(C(F)(F)F)c(OC)c3)C(=O)N2C1 [PP1851] | 165 | A (a compound having 10 or more and less than 20 is denoted as A) | A (a compound having 10 or more and less than 20 is denoted as A) | 1.8
CC[C@H](C)[C@@H]1NC(=O)[C@H](CC(C)C)N(C)C(=O)C[C@@H](C(=O)N(C)C)N(C)C(=O)[C@H](C2CCCC2)N(C)C(=O)C2(CCC2)NC(=O)[C@@H]2C[C@H](C)CN2C(=O)[C@H](CCc2ccc(C(F)(F)F)c(Cl)c2)NC(=O)CN(C)C(=O)[C@H](Cc2ccc(C)cc2)N2CC/C=C\C[C@@H](C2=O)N(C)C(=O)CN(C)C1=O [PP1852] | 6 | B (a compound having 3 or more and less than 10 is denoted as B) | A (a compound having 10 or more and less than 20 is denoted as A) | 0.071
CCC[C@H]1C(=O)N[C@@H]([C@@H](C)CC)C(=O)N(C)CC(=O)N(C)[C@H]2C/C=C\CCN(C2=O)[C@@H](Cc2ccc(C)cc2)C(=O)N(C)CC(=O)N[C@@H](CCc2ccc(C(F)(F)F)c(OC)c2)C(=O)N2C[C@@H](C)C[C@H]2C(=O)NC2(CCC2)C(=O)N(C)[C@@H](C2CCCC2)C(=O)N(C)[C@H](C(=O)N(C)C)CC(=O)N1C [PP1857] | 5 | B (a compound having 3 or more and less than 10 is denoted as B) | A (a compound having 10 or more and less than 20 is denoted as A) | 0.091
CCC[C@H]1C(=O)N[C@@H]([C@@H](C)CC)C(=O)N(C)CC(=O)N(C)[C@H]2C/C=C\CCN(C2=O)[C@@H](Cc2ccc(C)cc2)C(=O)N(C)CC(=O)N[C@@H](CCc2ccc(C(F)(F)F)c(OC)c2)C(=O)N2C[C@H](C)C[C@H]2C(=O)NC2(CCC2)C(=O)N(C)[C@@H](C2CCCC2)C(=O)N(C)[C@H](C(=O)N(C)C)CC(=O)N1C [PP1859] | 28.8 | A (a compound having 10 or more and less than 20 is denoted as A) | A (a compound having 10 or more and less than 20 is denoted as A) | 0.14
CCC[C@H]1C(=O)N[C@@H]([C@@H](C)CC)C(=O)N(C)CC(=O)N(C)[C@H]2C/C=C\CCN(C2=O)[C@@H](Cc2ccc(C)cc2)C(=O)N(C)CC(=O)N[C@@H](CCc2cc(F)c(C(F)(F)F)c(F)c2)C(=O)N2C[C@@H](C)C[C@H]2C(=O)NC2(CCC2)C(=O)N(C)[C@@H](C2CCCC2)C(=O)N(C)[C@H](C(=O)N(C)CC)CC(=O)N1C [PP1860] | 10.3 | A (a compound having 10 or more and less than 20 is denoted as A) | A (a compound having 10 or more and less than 20 is denoted as A) | 0.11
